For six molecules, TGI results are on record in PubChem BioAssay (NCI).

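Following 48 hours of exposure in 96-well plates, responses at five concentrations were used to interpolate endpoints linearly. TGI marks complete inhibition of growth.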

Test systems include SK-OV-3 ovarian; UO-31 renal; U251 CNS; RPMI-8226 leukemia; OVCAR-4 ovarian; MDA-MB-231 breast; HS 578T breast; NCI-H23 lung; NCI-H460 lung; HCC-2998 colon.
Assay in all cases: DTP human tumour cell line panel, 48 h

Usually TGI stands for the concentration at which net growth stops. A higher TGI goes with less potent growth arrest. On to `CC(NC(=O)C(NC(=O)CNC(=O)OC(C)(C)C)C(C)C)C(=O)Oc1c(Cl)c(Cl)c(Cl)c(Cl)c1Cl` (stereo not given), for which the total growth inhibition concentration (TGI) in the assay on SK-OV-3 ovarian is 51.5 µM; in the assay on UO-31 renal, 29.5 µM; with U251 CNS, 48.3 µM; in the assay on RPMI-8226 leukemia, more than 100 µM; with OVCAR-4 ovarian, 60.9 µM; in the assay with MDA-MB-231 breast it was 42 µM. For the same molecule, the TGI came to 50.1 µM with HS 578T breast, 29.5 µM in the assay on NCI-H23 lung, 39.3 µM with NCI-H460 lung and 39.4 µM in the assay with HCC-2998 colon.
As for `C[N+](C)(C)c1ccc(C(N)C(=O)O)cc1` (stereo not given), the TGI in the assay with SK-OV-3 ovarian, with UO-31 renal, with U251 CNS, in the assay on RPMI-8226 leukemia, in the assay with OVCAR-4 ovarian and in the assay with MDA-MB-231 breast was more than 100 µM each time. For the same molecule, the TGI in the assay with HS 578T breast, with NCI-H23 lung, with NCI-H460 lung and with HCC-2998 colon was more than 100 µM in each case.
As for `CCNC(=S)N=Nc1c(O)[nH]c2ccc([N+](=O)[O-])cc12`, the TGI in the assay on SK-OV-3 ovarian, in the assay with UO-31 renal, in the assay on U251 CNS, in the assay with RPMI-8226 leukemia, in the assay on OVCAR-4 ovarian and with MDA-MB-231 breast was more than 100 µM each time. Besides, the total growth inhibition concentration (TGI) with HS 578T breast is more than 100 µM; in the assay on NCI-H23 lung, more than 100 µM; in the assay with NCI-H460 lung, more than 100 µM; in the assay with HCC-2998 colon, 72.8 µM.
As for `CSCSSC`, the TGI with SK-OV-3 ovarian, in the assay on UO-31 renal, with U251 CNS, in the assay on RPMI-8226 leukemia, in the assay with OVCAR-4 ovarian and in the assay with MDA-MB-231 breast was more than 100 µM in each case. The TGI with HS 578T breast, in the assay on NCI-H23 lung, with NCI-H460 lung and with HCC-2998 colon was more than 100 µM in each case.
In the case of `Cc1ccc([S@](=O)c2occc2C=O)cc1`, the TGI is 26.5 µM with SK-OV-3 ovarian; 23.2 µM in the assay on UO-31 renal; 27.4 µM in the assay on U251 CNS; 8.04 µM in the assay on RPMI-8226 leukemia; more than 53.2 µM in the assay on OVCAR-4 ovarian; 24.2 µM with MDA-MB-231 breast. The total growth inhibition concentration (TGI) in the assay on HS 578T breast turned out to be 36.1 µM; with NCI-H23 lung it was 30.4 µM; in the assay on NCI-H460 lung, 33.8 µM; with HCC-2998 colon, 29.3 µM.
`Cc1cc(-c2nc3cc(F)ccc3s2)ccc1NC(=O)[C@@H](N)CCCCN`: the TGI with SK-OV-3 ovarian was determined as 25.7 µM; in the assay with UO-31 renal it was 13.9 µM; with U251 CNS it was 3.89 µM; with RPMI-8226 leukemia it was 4.88 µM; in the assay with OVCAR-4 ovarian it was 22 µM; in the assay with MDA-MB-231 breast, 10.5 µM. Further, the TGI worked out at 24.7 µM in the assay on HS 578T breast, 4.93 µM in the assay with NCI-H23 lung, 2.24 µM in the assay with NCI-H460 lung and 6.85 µM with HCC-2998 colon.
